Experimental data from patent US20210079015A1, “NOVEL DIHYDROISOXAZOLE COMPOUNDS AND THEIR USE FOR THE TREATMENT OF HEPATITIS B” (Novartis AG, priority 2017, published 2021).
pEC50: −log10 of the molar value.

system: HBV; test: Anti-HBV assay (inhibition of HBV replication in HepG2.cl42 cells, HBV DNA by qPCR); assay type: cell-based, HBV ayw strain; conditions: Hepatitis B virus, 96 h, treated four days, HBV DNA quantified by real time PCR, read-out: HBsAg EC50

| Structure (SMILES) | pEC50 |
| --- | --- |
| COC[C@@H]1CN(c2onc3c2CN(C(=O)Nc2cc(F)c(F)c(F)c2)[C@@H](C)C3)C(=O)O1 [Compound 61, (S)-3-((S)-5-(methoxymethyl)-2-oxooxazolidin-3-yl)-6-methyl-N-(3,4,5-trifluorophenyl)-6,7-dihydroisoxazolo[4,3-c]pyridine-5(4H)-carboxamide] | 6.00 to 7.00 |
| Cc1nc(-c2onc3c2[C@H](C)N(C(=O)Nc2cc(F)c(F)c(F)c2)CC3)no1 [Compound 42] | 6.00 to 7.00 |
| Cc1ccc(-c2onc3c2CN(C(=O)Nc2cc(F)c(F)c(F)c2)[C@@H](C)C3)cc1 [Compound 11] | 6.00 to 7.00 |
| C[C@H]1Cc2noc(-c3cnn(C)c3)c2CN1C(=O)Nc1cc(F)c(F)c(F)c1 [Compound 31] | 6.00 to 7.00 |
| CC1CCN(c2onc3c2CN(C(=O)Nc2cc(F)c(F)c(F)c2)[C@@H](C)C3)C1=O (stereo partly drawn) [Compound 56, (6S)-6-methyl-3-(3-methyl-2-oxopyrrolidin-1-yl)-N-(3,4,5-trifluorophenyl)-6,7-dihydroisoxazolo[4,3-c]pyridine-5(4H)-carboxamide] | > 7.00 |
| C[C@H]1Cc2noc(-c3ccc(F)cc3F)c2CN1C(=O)Nc1cc(F)c(F)c(F)c1 [Compound 3.1-I, (S)-3-(2,4-difluorophenyl)-6-methyl-N-(3,4,5-trifluorophenyl)-6,7-dihydroisoxazolo[4,3-c]pyridine-5(4H)-carboxamide] | > 7.00 |
| C[C@H]1Cc2noc(C3CCCC3)c2CN1C(=O)Nc1cc(F)c(F)c(F)c1 [Compound 43] | 6.00 to 7.00 |
| C[C@H]1Cc2noc(N3CCOCC3)c2CN1C(=O)Nc1cc(F)c(F)c(F)c1 [Compound 59, (S)-6-methyl-3-morpholino-N-(3,4,5-trifluorophenyl)-6,7-dihydroisoxazolo[4,3-c]pyridine-5(4H)-carboxamide] | ≤ 6.00 |
| C[C@H]1Cc2noc(-c3cn(C)nn3)c2CN1C(=O)Nc1cc(F)c(F)c(F)c1 [Compound 37] | 6.00 to 7.00 |
| C[C@H]1Cc2noc(-c3ccc(F)cn3)c2CN1C(=O)Nc1cc(F)c(F)c(F)c1 [Compound 27, (S)-3-(5-fluoropyridin-2-yl)-6-methyl-N-(3,4,5-trifluorophenyl)-6,7-dihydroisoxazolo[4,3-c]pyridine-5(4H)-carboxamide] | 6.00 to 7.00 |
| C[C@H]1Cc2noc(-c3cccc(F)c3)c2CN1C(=O)Nc1cc(F)c(F)c(F)c1 [Compound 21] | 6.00 to 7.00 |
| C[C@H]1Cc2noc(-c3ccc(F)cc3)c2CN1C(=O)Nc1cc(F)c(F)c(F)c1 [Compound 13] | 6.00 to 7.00 |
| C[C@H]1Cc2noc(N3CCC(C)(C)C3=O)c2CN1C(=O)Nc1cc(F)c(F)c(F)c1 [Compound 57, (S)-3-(3,3-dimethyl-2-oxopyrrolidin-1-yl)-6-methyl-N-(3,4,5-trifluorophenyl)-6,7-dihydroisoxazolo[4,3-c]pyridine-5(4H)-carboxamide] | > 7.00 |
| C[C@H]1c2c(noc2-c2cnn(C)c2)CCN1C(=O)Nc1cc(F)c(F)c(F)c1 [Compound 32] | ≤ 6.00 |
| Cc1nc(-c2onc3c2CN(C(=O)Nc2cc(F)c(F)c(F)c2)[C@@H](C)C3)no1 [Compound 41] | 6.00 to 7.00 |
| C[C@H]1Cc2noc(-c3ccn(C)n3)c2CN1C(=O)Nc1cc(F)c(F)c(F)c1 [Compound 33] | > 7.00 |
| C[C@H]1Cc2noc(-c3cccc(C#N)c3)c2CN1C(=O)Nc1cc(F)c(F)c(F)c1 [Compound 14] | 6.00 to 7.00 |
| O=C(Nc1cc(F)c(F)c(F)c1)N1CCc2noc(C3CCCCC3)c2C1 [Compound 2.1, 3-cyclohexyl-N-(3,4,5-trifluorophenyl)-6,7-dihydroisoxazolo[4,3-c]pyridine-5(4H)-carboxamide] | 6.00 to 7.00 |
| C[C@H]1Cc2noc(N3CCCOC3=O)c2CN1C(=O)Nc1cc(F)c(F)c(C(F)F)c1 [Compound 51, (S)—N-(3-(difluoromethyl)-4,5-difluorophenyl)-6-methyl-3-(2-oxo-1,3-oxazinan-3-yl)-6,7-dihydroisoxazolo[4,3-c]pyridine-5(4H)-carboxamide] | > 7.00 |
| COC[C@H]1CN(c2onc3c2CN(C(=O)Nc2cc(F)c(F)c(F)c2)[C@@H](C)C3)C(=O)O1 [Compound 62, (S)-3-((R)-5-(methoxymethyl)-2-oxooxazolidin-3-yl)-6-methyl-N-(3,4,5-trifluorophenyl)-6,7-dihydroisoxazolo[4,3-c]pyridine-5(4H)-carboxamide] | 6.00 to 7.00 |
